Measurements from paper PMC4747952, “Development of TASP0410457 (TASP457), a novel dihydroquinolinone derivative as a PET radioligand for central histamine H3 receptors” (EJNMMI Research, 2016).

Columns and labels:
P-glycoprotein (MDR1) = biological target: T1, P-glycoprotein (MDR1) (Homo sapiens, UniProt P08183); experiment: P-glycoprotein-mediated transcellular transport, LLC-GA5-COL300 cells; type: in vitro ADME; details: for susceptibility for P-glycoprotein (substrate or not): assumed criterion: efflux ratio (ER) exceeding 2.00; for efflux ratio at 2 h, 1 µM: human, LLC-PK1, ER=Papp, b to a/Papp, a to b, LLC-GA5-COL300 cells
T1 construct: expressed in transfected cells; host or cells: LLC-GA5-COL300
T1 sequence (P08183 whole entry): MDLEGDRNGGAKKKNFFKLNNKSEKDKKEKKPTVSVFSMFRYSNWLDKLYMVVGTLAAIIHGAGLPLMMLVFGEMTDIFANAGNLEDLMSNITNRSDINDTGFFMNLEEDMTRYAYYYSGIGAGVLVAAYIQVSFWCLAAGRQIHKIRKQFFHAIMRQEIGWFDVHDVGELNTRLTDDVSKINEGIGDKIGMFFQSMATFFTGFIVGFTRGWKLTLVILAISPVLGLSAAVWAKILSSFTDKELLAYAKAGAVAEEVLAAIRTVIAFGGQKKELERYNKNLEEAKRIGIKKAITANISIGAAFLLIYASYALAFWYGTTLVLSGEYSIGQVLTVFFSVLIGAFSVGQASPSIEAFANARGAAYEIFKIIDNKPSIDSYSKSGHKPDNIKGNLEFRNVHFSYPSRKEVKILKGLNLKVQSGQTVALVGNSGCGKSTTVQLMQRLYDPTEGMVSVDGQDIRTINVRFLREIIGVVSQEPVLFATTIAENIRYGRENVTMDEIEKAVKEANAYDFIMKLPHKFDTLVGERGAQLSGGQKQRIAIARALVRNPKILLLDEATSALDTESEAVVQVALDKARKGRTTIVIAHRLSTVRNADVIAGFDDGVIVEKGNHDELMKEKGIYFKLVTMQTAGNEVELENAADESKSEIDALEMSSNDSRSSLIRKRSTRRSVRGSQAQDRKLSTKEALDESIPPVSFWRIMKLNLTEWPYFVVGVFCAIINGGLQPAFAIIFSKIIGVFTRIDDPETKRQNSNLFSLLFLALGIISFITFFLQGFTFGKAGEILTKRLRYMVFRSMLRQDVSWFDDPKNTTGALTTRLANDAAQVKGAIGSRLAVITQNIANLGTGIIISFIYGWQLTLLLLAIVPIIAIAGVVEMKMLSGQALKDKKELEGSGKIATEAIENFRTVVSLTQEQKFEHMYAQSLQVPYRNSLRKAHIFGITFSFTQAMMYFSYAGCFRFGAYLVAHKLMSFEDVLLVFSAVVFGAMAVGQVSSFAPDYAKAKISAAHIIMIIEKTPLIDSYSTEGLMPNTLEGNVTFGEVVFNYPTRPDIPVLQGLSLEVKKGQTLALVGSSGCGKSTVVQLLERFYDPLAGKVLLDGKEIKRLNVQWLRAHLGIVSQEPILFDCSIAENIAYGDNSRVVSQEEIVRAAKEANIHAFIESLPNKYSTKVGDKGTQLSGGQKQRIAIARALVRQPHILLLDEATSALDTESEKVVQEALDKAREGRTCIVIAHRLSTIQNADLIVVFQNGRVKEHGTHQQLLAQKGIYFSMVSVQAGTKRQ
Method: Assays for P-glycoprotein-mediated transcellular transport of compounds LLC-GA5-COL300 cells expressing human P-glycoprotein were seeded at a density of 4.5 × 10^5 cells/cm2 onto polycarbonate membrane filters of 12-well cell culture insert plates and cultured at 37°C in a humidified incubator containing 5% CO2 for 3 days. After each cell monolayer was pre-incubated at 37°C for 20 min in Hank’s balanced salt solution containing 10 mM HEPES (HBSS buffer), transcellular transport experiments were initiated by adding the test compound solution to the apical or basal side of the cell culture inserts. HBSS buffer was sampled from the compartment opposite of that spiked with the test compounds at 0.5, 1, 1.5 and 2 h after initiation of the experiments, and concentrations of the test compounds were determined using LC-MS/MS. The apparent permeability coefficient (Papp) of the test compounds was calculated using the following equation:
Papp= dQ/dt / C0 / A Eq. 1, where dQ/dt represents the rate of permeation of the compounds, C0 is the initial concentration of the test compounds ([…]), and A is the area of the monolayer. The efflux ratio (ER) was defined as […]
ER=Papp, b to a/Papp, a to b Eq. 2, where Papp, b to a and Papp, a to b represent Papp in the basal-to-apical (b to a) and apical-to-basal (a to b) directions, respectively. […]

Glutamate Kainate = experiment: Off-target binding (Cerep); set-up: unit of the concentration uncertain
Source text: (§1) Off-target binding of compounds assessed using an in-house assay (M4) and a commercial battery (all
(§2) others) (Cerep, Celle L'Evescault, France).

Imidazoline I2 = experiment: Off-target binding (Cerep); set-up: unit of the concentration uncertain
Source text: as §1, §2

Opioid kappa (KOP) = experiment: Off-target binding (Cerep); set-up: unit of the concentration uncertain
Source text: as §1, §2

Serotonin 5-HT1B = experiment: Off-target binding (Cerep); set-up: unit of the concentration uncertain
Source text: as §1, §2

Serotonin 5-HT1D = experiment: Off-target binding (Cerep); set-up: unit of the concentration uncertain
Source text: as §1, §2

central H3Rs = experiment: Receptor occupancy assay, [^11C]TASP0410457-PET, Lassen's plot; type: in vivo, monkey; details: monkey
Method: Occupancy of central H3Rs by ciproxifan, a selective antagonist/inverse agonist, was quantified by [^11C]TASP0410457-PET scans of an anesthetized monkey with arterial blood sampling. […] Receptor occupancy of ciproxifan was determined using Lassen’s plot without any reference regions using the following equation: VT^Baseline−VT^Ciproxifan=OccVT^Baseline−VND where VT^Baseline and VT^Ciproxifan are the regional VT values at baseline and in the ciproxifan challenge, respectively, VND is the non-displaceable distribution volume, and Occ is the occupancy.

[1] = Radiochemical stability in the final formulation; type: physicochemical; details: at 1 h after the end of radiosynthesis
Method: [^11C]TASP0390136, [^11C]TASP0410457, and [^11C]TASP0434988 were synthesized as shown in Fig. 1a–c (detailed procedures are described in Additional file 1: Supplemental methods) using a homemade automated synthesis system. The radiochemical purities and specific activities of the radioligands, which were analyzed as described in Additional file 1: Supplemental Methods, along with their radiochemical yields and average synthesis times, are summarized in Table 1. Analytical HPLC chromatogram of each radioligand is shown in Additional file 2-4: Figures S1-S3. The radiochemical stabilities of [^11C]TASP0410457 and [^11C]TASP0434988 in the final formulation were >99 % at 1 h and 40 min, respectively, after the end of radiosynthesis.

H3Rs = biological target: T2, H3Rs (Rattus norvegicus, UniProt Q9QYN8); experiment: In vitro autoradiography, rat brain sections; type: binding; details: 5 nM radioligand
T2 construct: from tissue; host or cells: sagittal rat brain sections
T2 sequence (Q9QYN8 whole entry): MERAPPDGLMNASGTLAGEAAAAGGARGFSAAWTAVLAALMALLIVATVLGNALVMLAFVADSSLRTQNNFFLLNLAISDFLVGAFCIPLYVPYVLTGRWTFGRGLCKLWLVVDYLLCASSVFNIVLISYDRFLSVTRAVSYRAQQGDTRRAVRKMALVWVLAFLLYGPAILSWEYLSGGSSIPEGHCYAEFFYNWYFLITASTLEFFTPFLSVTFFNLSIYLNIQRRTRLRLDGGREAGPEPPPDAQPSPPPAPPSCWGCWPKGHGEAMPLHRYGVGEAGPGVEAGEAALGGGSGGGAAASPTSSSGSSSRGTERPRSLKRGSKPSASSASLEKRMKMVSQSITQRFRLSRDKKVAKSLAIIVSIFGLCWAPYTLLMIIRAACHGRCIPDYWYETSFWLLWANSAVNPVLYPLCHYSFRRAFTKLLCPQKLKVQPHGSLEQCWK
Method: Twenty-micrometer-thick sagittal rat and monkey brain sections were incubated in an autoradiography buffer containing 5 nM [^11C]TASP0410457 as described in Additional file 1: Supplemental methods. The binding was also performed in the presence of 10 μM of unlabeled TASP0410457, thioperamide, or ciproxifan for the rat sections and 10 μM of TASP0410457 or ciproxifan for the monkey sections to assess the specific radioligand binding.
(25:75) at a flow rate of 1 mL/min. A representative chromatogram of [11C]TASP0390136 is shown in […]
Twenty-micrometer-thick sagittal rat brain sections were pre-incubated with autoradiography buffer (50 mM Tris containing 120 mM NaCl, 2 mM KCl, 1 mM MgCl2, and 1 mM CaCl2, pH7.4) for 30 min, then incubated in the autoradiography buffer containing 5 nM [11C]TASP0410457 at 25°C for 1 h. The sections were washed two times with ice-cold autoradiography buffer for 5 min, rinsed with ice-cold water for 10 s, and then quickly dried. The radioactivity retained on the sections was determined using a BAS imaging plate and the BAS5000 system (GE Healthcare, Piscataway, NJ). For a blocking study, brain slices were reacted with [11C]TASP0410457 in the presence of […] of TASP0410457, thioperamide, or ciproxifan.
Similarly, autoradiography using […] sagittal rhesus monkey brain sections was conducted. […]

[2] = set-up: method as in earlier work; details: humans; at 30 min; ref Kimura et al., manuscript submitted to Eur J Nucl Med Mol Imaging; cited from earlier work
[3] = Concentration 10 (unit uncertain)
[4] = Concentration 1 (unit uncertain)

## COc1ccc(N2C(=O)CCc3cc(OCCCN4CCC[C@H]4C)ccc32)cc1 [TASP0390136, 1-(4-methoxyphenyl)-6-{3-[(2R)-2-methylpyrrolidin-1-yl]propoxy}-3,4-dihydroquinolin-2(1H)-one]
P-glycoprotein (MDR1)
  susceptibility for P-glycoprotein (substrate or not): P-glycoprotein substrates
  efflux ratio at 2 h, 1 µM: 6.29
Glutamate Kainate; [3]
  % Inhibition: -11%
Imidazoline I2; [3]
  % Inhibition: 23%
Opioid kappa (KOP); [3]
  % Inhibition: 11%
Serotonin 5-HT1B; [3]
  % Inhibition: -25%
Serotonin 5-HT1D; [3]
  % Inhibition: 5%

## COc1ccc(N2C(=O)CCc3cc(OC4CCN(C5CCC5)CC4)ccc32)cn1 [TASP0410457, 6-[(1-Cyclobutylpiperidin-4-yl)oxy]-1-(6-methoxypyridin-3-yl)-3,4-dihydroquinolin-2(1H)-one]
P-glycoprotein (MDR1)
  susceptibility for P-glycoprotein (substrate or not): not a substrate of P-glycoprotein
  efflux ratio at 2 h, 1 µM: 1.64
Glutamate Kainate; [3]
  % Inhibition: -12%
Imidazoline I2; [3]
  % Inhibition: 1%
Opioid kappa (KOP); [3]
  % Inhibition: -6%
Serotonin 5-HT1B; [3]
  % Inhibition: 25%
Serotonin 5-HT1D; [3]
  % Inhibition: 17%

## COc1ccc(N2C(=O)CCc3cc(OC4CCN(C5CCC5)CC4)ccc32)cc1 [TASP0434988, 6-[(1-cyclobutylpiperidin-4-yl)oxy]-1-(4-methoxyphenyl)-3,4-dihydroquinolin-2(1H)-one]
P-glycoprotein (MDR1)
  susceptibility for P-glycoprotein (substrate or not): P-glycoprotein substrates
  efflux ratio at 2 h, 1 µM: 2.14
Glutamate Kainate; [4]
  % Inhibition: 4%
Imidazoline I2; [4]
  % Inhibition: 16%
Opioid kappa (KOP); [4]
  % Inhibition: -12%
Serotonin 5-HT1B; [4]
  % Inhibition: 3%
Serotonin 5-HT1D; [4]
  % Inhibition: -12%

## [11CH3]Oc1ccc(N2C(=O)CCc3cc(OC4CCN(C5CCC5)CC4)ccc32)cn1 [[^11C]TASP0410457]
Central H3Rs
  specific radioligand binding as share of the radioactivity in the striatum: more than 80%
Central H3Rs; Lassen's plot
  Non-displaceable distribution volume: 4.0 mL/cm^3
[1]
  radiochemical stability in the final formulation: > 99%
H3Rs
  autoradiographic binding in rat brain sections: abundant specific binding in the striatum and neocortex
[2]
  share of total plasma radioactivity arising from the metabolite: 13%
